# Source: ChEMBL document CHEMBL1201862, “PubChem BioAssay data set” (2004)
# Calls of active or inactive are those of the source.
# Experiments:
# [1] = target: Lytic switch protein BZLF1 (Epstein-Barr virus (strain B95-8) (HHV-4) (Human herpesvirus 4), UniProt P03206); assay: EBV ZTA inhibitors, dose response, counter-screen for EBNA-1 inhibitor project, biochemical, fluorescence polarization, Epstein-Barr virus, 1536-well (AID 2377); parameters: species or system human gammaherpesvirus 4;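 note: fluorescence polarization of Cy5-labelled ZRE DNA probe bound by purified Zta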
# [2] = target: Epstein-Barr nuclear antigen 1 (Epstein-Barr virus (strain B95-8) (HHV-4) (Human herpesvirus 4), UniProt P03211); assay: EBNA-1 inhibitors, dose response, biochemical, fluorescence polarization, 1536-well (AID 2381); parameters: species or system human gammaherpesvirus 4;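 note: fluorescence polarization of a Cy5 DNA probe bound by EBNA-1 protein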
# [3] = target: T1, DNA repair protein RAD52 homolog (Homo sapiens, UniProt P43351); assay type: functional, biochemical
# T1 sequence (P43351 whole entry): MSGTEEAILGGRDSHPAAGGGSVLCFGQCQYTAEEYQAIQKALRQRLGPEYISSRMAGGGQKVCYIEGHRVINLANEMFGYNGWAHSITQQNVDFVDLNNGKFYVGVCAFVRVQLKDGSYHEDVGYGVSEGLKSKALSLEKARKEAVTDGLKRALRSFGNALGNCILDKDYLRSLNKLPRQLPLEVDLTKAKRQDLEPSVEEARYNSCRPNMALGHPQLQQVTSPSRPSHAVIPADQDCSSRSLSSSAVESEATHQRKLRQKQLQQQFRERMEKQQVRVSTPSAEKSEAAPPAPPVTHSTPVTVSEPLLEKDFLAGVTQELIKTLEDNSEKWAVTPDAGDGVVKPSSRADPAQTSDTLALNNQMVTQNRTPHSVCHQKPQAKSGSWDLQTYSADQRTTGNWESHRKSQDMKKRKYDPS
# CAAX prenyl protease 2 [4] = target: T2, CAAX prenyl protease 2 (Homo sapiens, UniProt Q9Y256); assay: human Rce1 protease inhibitors, dose response, biochemical, yeast membranes, quenched-peptide fluorescence, cherry-pick (AID 588849)
# T2 sequence (Q9Y256 whole entry): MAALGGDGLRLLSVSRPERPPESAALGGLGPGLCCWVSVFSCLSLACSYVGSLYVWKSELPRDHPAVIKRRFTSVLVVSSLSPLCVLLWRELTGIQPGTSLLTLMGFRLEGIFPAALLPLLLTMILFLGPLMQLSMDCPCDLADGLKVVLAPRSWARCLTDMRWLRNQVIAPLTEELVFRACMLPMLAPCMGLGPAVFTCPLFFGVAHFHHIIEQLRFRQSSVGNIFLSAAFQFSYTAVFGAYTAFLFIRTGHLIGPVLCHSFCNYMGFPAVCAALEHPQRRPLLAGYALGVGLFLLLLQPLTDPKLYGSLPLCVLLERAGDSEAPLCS
# Trypsin = Trypsin (Sus scrofa, UniProt P00761); assay: porcine trypsin inhibitors, dose response, selectivity assay for Rce1 protease inhibitor project, biochemical, quenched peptide fluorescence, cherry-pick (AID 488789)
# [5] = target: Aryl hydrocarbon receptor (Homo sapiens, UniProt P35869); assay: Luminescence-based cell-based high throughput dose response assay for activators of the Aryl Hydrocarbon Receptor (AHR). [Related pubchem assays: 2796 (Primary screen (AHR activators in singlicate)), 2845 (Confirmation screen (AHR activators in triplicate)), 434939 (Counterscreen (PXR activators in triplicate)), 2804 (Summary (AHR activators))]; assay type: ADME
# CAAX prenyl protease 2 [6] = target: T3, CAAX prenyl protease 2 (Saccharomyces cerevisiae S288c, UniProt Q03530); assay type: biochemical
# T3 sequence (Q03530 whole entry): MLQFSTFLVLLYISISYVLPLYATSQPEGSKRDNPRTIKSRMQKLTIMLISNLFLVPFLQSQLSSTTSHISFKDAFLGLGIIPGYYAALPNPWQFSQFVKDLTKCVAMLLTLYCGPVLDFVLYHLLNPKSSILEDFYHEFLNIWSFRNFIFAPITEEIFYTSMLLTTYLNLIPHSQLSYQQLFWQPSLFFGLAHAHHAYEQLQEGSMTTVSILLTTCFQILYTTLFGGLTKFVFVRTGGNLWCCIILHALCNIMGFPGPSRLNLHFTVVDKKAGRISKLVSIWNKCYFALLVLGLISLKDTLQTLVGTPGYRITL
# [7] = target: T4, DNA repair and recombination protein RAD54-like (Homo sapiens, UniProt Q92698); assay: inhibitors of human RAD54 branch migration, confirmation, biochemical, fluorescence, cherry-picked samples, dose series (AID 651657); assay type: functional
# T4 sequence (Q92698 whole entry): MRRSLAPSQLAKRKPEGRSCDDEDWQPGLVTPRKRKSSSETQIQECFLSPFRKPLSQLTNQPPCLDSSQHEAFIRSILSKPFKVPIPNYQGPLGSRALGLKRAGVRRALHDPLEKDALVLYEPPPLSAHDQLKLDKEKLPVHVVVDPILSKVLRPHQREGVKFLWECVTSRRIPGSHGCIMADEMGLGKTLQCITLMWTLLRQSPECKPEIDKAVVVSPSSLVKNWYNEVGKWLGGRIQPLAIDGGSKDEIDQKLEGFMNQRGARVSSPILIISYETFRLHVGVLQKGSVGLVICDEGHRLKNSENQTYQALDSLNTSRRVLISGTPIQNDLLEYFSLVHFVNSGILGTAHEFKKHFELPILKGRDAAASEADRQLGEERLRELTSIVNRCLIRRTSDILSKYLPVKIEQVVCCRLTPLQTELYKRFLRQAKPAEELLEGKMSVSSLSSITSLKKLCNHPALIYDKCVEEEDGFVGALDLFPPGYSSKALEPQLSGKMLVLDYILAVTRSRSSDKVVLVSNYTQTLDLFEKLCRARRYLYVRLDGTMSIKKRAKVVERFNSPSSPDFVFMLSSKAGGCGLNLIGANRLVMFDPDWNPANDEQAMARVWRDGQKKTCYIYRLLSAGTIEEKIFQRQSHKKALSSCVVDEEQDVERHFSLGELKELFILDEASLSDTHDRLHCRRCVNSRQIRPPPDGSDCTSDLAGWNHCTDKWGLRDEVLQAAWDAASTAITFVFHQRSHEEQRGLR
# Danio rerio = assay: In Vivo Angiogenesis Dose-Response Confirmation. [Related pubchem assays: 732 (Assay preceding this confirmatory assay.)]; assay type: functional, organism-based
# Cytochrome P450 2D6 = Cytochrome P450 2D6 (Homo sapiens, UniProt P10635); assay: qHTS Assay for Inhibitors and Substrates of Cytochrome P450 2D6. [Related pubchem assays: 410 ]; assay type: ADME; conditions: read-out: Potency
# Cytochrome P450 3A4 = Cytochrome P450 3A4 (Homo sapiens, UniProt P08684); conditions: Potency;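 note: confirmatory qHTS run detecting inhibitors and substrates of CYP3A4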
# Cytochrome P450 2C19 = Cytochrome P450 2C19 (Homo sapiens, UniProt P33261); assay: qHTS Assay for Inhibitors and Substrates of Cytochrome P450 2C19. [Related pubchem assays: 410 ]; assay type: ADME; conditions: read-out: Potency
# [8] = Luminescence Cell-Based Dose Response HTS to Identify Activators of Luciferase Translation or Activity in H4 […] Cells. [Related pubchem assays: 1829 (Project Summary), 1814 (Primary HTS)]; assay type: functional
# [9] = Luminescence Cell-Based Dose Confirmation to Identify Activators of 5'UTR Stem-Loop Driven Alpha-Synuclein mRNA Translation in H4 Neuroglioblastoma Cells. [Related pubchem assays: 1829 (Project Summary), 1814 (Primary HTS)]; assay type: functional
# [10] = Luminescence Cell-Based Dose Response to Identify Activators of Luciferase Translation or Activity in H4-C Neuroglioblastoma Cells. [Related pubchem assays: 1829 (Project Summary), 1814 (Primary HTS)]; assay type: functional
# H4 = assay: Luminescence Cell-Based Dose Response HTS to Identify Activators of 5'UTR Stem-Loop Driven Prion Protein mRNA Translation in H4 Neuroglioblastoma Cells. [Related pubchem assays: 1829 (Project Summary), 1814 (Primary HTS)]; assay type: functional; conditions: Homo sapiens
# [11] = Luminescence Cell-Based Dose Response to Identify Activators of 5'UTR Stem-Loop Driven Prion Protein mRNA Translation in H4-C Neuroglioblastoma Cells. [Related pubchem assays: 1829 (Project Summary), 1814 (Primary HTS)]; assay type: functional
# HeLa = assay: HeLa cell cytotoxicity, dose response, cytotoxicity control for MITF activator project, CellTiter-Glo luminescence, cherry-pick samples (AID 540259); assay type: functional, cell-based; conditions: Homo sapiens
# Estrogen receptor beta [12] = target: T5, Estrogen receptor beta (Homo sapiens, UniProt Q92731);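 note: recombinant ER-beta bound to coactivator SRC1 peptide in presence of estradiol agonist; inhibitors block coactivator peptide binding and lower the FRET signal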
# Estrogen receptor beta [13] = target: T5, Estrogen receptor beta; assay: ERβ–SRC-3 coactivator interaction inhibitors, confirmation, orthogonal assay, biochemical, ELISA, streptavidin-HRP readout (AID 1060)
# Estrogen receptor = target: T6, Estrogen receptor (Homo sapiens, UniProt P03372);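 note: potency for inhibiting coactivator peptide recruitment to the receptor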
# T6 sequence (P03372 whole entry): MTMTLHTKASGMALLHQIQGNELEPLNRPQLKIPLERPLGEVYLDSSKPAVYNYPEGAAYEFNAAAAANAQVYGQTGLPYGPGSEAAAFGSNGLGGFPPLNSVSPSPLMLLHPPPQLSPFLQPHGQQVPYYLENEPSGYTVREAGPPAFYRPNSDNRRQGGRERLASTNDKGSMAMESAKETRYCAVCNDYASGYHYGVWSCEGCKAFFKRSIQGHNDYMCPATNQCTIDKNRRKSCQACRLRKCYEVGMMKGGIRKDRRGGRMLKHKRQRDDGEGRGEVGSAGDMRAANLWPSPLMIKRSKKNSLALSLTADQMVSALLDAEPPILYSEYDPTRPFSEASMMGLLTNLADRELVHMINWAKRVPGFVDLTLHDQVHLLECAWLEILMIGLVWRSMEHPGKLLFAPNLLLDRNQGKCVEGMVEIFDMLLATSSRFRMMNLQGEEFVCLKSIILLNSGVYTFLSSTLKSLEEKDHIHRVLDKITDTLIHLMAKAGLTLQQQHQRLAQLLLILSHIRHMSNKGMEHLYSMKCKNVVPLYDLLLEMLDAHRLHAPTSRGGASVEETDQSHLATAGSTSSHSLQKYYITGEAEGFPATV
# [14] = target: T7, Short transient receptor potential channel 4 (Mus musculus, UniProt Q9QUQ5); assay: mouse TRPC4 channel inhibitors, dose response, cell-based, HEK293 TRPC4/mu-opioid, Fluo-4 calcium (AID 434942); assay type: functional;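 note: potency of inhibitors blocking the TRPC4 calcium response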
# T7 sequence (Q9QUQ5 whole entry): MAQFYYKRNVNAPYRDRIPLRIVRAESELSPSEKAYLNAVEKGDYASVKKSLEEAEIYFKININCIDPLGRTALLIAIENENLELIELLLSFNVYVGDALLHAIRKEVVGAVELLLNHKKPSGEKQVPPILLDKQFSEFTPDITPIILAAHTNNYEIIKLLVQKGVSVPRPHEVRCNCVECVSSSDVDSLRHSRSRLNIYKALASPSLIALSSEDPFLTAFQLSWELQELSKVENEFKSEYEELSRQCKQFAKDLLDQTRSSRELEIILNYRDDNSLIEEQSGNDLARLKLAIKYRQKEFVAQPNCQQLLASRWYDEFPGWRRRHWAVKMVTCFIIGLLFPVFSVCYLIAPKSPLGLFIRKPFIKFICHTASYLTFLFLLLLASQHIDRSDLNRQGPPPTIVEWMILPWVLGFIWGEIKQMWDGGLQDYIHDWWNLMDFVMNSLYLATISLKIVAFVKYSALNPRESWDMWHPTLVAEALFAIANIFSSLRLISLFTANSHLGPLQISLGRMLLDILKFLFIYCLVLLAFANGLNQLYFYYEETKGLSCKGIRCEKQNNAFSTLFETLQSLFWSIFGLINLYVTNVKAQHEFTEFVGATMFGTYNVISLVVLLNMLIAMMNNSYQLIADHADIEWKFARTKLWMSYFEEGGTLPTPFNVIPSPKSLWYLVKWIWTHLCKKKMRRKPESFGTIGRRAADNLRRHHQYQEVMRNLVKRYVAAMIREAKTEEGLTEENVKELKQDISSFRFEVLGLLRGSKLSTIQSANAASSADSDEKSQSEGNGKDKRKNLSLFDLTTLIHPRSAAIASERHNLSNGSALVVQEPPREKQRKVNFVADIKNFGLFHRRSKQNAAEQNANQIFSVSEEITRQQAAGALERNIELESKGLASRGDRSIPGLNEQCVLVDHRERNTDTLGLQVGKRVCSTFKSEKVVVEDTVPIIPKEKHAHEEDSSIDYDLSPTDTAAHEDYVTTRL
# Sequence of Lytic switch protein BZLF1 (P03206 whole entry): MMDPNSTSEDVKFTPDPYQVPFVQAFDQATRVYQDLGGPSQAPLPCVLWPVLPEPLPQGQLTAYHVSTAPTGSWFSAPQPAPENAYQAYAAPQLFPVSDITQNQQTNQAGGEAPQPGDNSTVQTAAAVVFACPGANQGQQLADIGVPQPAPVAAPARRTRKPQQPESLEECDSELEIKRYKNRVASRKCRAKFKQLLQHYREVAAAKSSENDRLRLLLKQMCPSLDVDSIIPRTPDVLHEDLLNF
# Sequence of Aryl hydrocarbon receptor (P35869 whole entry): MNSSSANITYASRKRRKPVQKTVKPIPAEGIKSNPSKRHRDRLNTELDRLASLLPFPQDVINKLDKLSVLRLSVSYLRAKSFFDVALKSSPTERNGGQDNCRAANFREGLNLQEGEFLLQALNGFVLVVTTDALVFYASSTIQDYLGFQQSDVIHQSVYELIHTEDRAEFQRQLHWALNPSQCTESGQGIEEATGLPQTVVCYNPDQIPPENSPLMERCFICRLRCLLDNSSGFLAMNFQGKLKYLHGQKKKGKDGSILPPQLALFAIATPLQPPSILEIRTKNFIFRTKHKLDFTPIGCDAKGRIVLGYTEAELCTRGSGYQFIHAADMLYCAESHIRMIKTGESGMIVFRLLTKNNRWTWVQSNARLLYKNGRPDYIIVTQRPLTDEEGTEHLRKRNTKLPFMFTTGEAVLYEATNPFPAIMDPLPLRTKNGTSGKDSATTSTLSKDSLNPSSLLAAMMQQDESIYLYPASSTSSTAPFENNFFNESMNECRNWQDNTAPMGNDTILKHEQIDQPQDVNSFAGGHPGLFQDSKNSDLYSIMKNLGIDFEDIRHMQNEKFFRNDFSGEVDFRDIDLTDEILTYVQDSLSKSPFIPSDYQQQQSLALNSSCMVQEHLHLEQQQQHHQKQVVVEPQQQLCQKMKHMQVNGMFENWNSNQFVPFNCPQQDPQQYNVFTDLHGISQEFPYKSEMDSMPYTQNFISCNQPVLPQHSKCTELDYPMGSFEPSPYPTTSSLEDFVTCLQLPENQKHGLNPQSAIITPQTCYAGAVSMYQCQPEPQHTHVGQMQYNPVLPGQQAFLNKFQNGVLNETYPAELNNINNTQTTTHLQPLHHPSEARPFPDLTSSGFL
# T5 sequence (Q92731 whole entry): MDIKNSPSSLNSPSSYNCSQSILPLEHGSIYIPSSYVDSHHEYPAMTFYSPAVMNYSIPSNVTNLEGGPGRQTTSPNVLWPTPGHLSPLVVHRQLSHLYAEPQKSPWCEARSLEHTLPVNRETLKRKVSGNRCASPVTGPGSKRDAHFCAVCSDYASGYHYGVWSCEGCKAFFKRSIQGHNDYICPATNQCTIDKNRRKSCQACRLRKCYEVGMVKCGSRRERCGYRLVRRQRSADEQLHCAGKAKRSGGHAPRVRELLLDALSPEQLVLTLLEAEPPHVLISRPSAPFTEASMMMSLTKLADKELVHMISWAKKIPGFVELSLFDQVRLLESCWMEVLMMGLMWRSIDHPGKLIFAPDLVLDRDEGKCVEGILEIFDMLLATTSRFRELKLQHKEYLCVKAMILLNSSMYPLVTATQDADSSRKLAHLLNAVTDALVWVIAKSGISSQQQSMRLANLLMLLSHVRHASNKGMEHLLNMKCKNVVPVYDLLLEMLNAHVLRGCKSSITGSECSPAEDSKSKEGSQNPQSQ
# Sequence of Epstein-Barr nuclear antigen 1 (P03211 whole entry): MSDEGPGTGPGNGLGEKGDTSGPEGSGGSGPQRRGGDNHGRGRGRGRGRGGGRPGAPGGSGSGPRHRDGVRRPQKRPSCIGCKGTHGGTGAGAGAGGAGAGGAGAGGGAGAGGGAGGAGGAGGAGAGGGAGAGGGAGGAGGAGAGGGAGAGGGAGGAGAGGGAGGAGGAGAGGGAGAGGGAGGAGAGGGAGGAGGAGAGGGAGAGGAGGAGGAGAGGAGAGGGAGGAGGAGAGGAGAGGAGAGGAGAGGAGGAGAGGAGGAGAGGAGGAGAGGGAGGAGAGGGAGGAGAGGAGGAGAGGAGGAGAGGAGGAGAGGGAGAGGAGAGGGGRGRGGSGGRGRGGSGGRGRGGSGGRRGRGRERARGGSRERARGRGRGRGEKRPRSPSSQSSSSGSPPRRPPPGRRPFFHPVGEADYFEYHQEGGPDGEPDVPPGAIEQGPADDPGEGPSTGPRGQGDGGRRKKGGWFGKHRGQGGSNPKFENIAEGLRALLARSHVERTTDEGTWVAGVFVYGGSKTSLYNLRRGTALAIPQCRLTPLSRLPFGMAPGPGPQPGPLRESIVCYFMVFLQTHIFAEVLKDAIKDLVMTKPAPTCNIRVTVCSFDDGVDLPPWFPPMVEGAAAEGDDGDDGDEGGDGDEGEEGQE
# Sequence of Cytochrome P450 2C19 (P33261 whole entry): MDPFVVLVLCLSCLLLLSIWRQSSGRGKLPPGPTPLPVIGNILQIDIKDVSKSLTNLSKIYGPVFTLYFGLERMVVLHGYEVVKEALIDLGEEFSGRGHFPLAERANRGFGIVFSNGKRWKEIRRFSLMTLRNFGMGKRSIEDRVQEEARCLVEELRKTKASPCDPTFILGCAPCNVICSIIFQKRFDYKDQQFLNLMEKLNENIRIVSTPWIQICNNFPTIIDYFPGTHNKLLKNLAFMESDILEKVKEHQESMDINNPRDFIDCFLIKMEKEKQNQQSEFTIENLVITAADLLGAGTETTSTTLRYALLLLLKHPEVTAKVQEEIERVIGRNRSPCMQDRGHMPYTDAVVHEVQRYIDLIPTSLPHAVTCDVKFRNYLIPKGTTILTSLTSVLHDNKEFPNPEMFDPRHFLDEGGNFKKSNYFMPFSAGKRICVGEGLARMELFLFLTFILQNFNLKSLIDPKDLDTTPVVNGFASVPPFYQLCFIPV
# Sequence of Trypsin (P00761 whole entry): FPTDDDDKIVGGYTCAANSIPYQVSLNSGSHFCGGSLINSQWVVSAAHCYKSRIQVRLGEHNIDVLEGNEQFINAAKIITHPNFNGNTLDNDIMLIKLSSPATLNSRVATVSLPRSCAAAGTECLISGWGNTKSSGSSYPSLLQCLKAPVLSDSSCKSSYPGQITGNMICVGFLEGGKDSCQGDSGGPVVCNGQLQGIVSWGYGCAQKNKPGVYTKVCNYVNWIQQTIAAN
# Sequence of Cytochrome P450 2D6 (P10635 whole entry): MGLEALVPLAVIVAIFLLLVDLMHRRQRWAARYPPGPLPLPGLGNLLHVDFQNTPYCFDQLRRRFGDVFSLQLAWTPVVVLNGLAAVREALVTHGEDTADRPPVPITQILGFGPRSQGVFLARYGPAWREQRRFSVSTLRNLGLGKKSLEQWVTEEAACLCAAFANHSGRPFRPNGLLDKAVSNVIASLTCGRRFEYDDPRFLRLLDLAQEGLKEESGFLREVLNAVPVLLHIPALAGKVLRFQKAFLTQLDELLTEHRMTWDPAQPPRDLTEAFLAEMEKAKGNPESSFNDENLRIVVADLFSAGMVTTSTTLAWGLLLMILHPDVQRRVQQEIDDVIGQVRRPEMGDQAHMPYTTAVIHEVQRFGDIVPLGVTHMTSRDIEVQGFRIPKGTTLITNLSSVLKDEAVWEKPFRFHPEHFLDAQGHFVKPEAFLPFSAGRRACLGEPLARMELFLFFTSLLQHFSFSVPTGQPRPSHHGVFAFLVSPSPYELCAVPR
# Sequence of Cytochrome P450 3A4 (P08684 whole entry): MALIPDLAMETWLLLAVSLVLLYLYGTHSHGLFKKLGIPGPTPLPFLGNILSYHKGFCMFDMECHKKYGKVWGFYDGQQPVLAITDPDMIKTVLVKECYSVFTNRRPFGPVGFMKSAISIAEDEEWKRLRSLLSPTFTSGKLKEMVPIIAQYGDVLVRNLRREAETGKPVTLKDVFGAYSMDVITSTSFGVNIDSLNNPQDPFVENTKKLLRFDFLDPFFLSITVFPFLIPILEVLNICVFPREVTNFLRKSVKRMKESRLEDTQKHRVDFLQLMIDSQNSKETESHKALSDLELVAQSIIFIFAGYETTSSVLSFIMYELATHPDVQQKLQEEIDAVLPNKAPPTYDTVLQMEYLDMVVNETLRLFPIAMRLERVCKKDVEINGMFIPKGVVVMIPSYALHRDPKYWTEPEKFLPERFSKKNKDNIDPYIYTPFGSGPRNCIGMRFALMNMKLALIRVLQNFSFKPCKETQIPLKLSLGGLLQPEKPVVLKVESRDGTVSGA
compound,measurement,setting,value
O=C(CCCCCn1c(=S)[nH]c2cc3c(cc2c1=O)OCO3)N1CCN(Cc2ccccc2)CC1,IC50,[1],> 111 µM (not active)
same,IC50,[2],14.9 µM (not active)
CN(C)CCCN1C(=O)c2cccc3cccc(c23)C1=O,AC50,[3],16.4 µM (active)
same,AC50,CAAX prenyl protease 2 [4],5.4 µM (active)
same,AC50,Trypsin,38 µM (active)
same,EC50,[5],0.815 µM (active)
same,AC50,CAAX prenyl protease 2 [6],68.1 µM (active)
same,AC50,[7],11.1 µM (active)
CCCc1nn(C)c(C(=O)Nc2cccc3ccccc23)c1Cl,EC50,[5],5.22 µM (active)
O=C1Nc2ccccc2/C1=C1/Nc2ccc(Br)cc2/C1=N\OCCN1CCNCC1,IC50,Danio rerio,> 30 µM (not active)
ONC1c2cc(Cl)ccc2-c2c(Cl)cc(Cl)cc21 (stereo unspecified),IC50,Danio rerio,< 0.3 µM (not active)
COC(=O)N1CCc2cc(OC)c(OC)cc2C1Cc1ccc(OC)cc1 (stereo unspecified),AC50,Cytochrome P450 2D6,3.16 µM (inconclusive)
same,AC50,Cytochrome P450 3A4,3.98 µM (inconclusive)
same,AC50,Cytochrome P450 2C19,3.98 µM (inconclusive)
Cc1nc2cc(Nc3nnc(-c4ccccc4)c4ccccc34)ccc2n1C,EC50,[8],< 0.1 µM (active)
same,EC50,[9],2.91 µM (active)
same,EC50,[10],> 12 µM (not active)
same,EC50,H4,31.4 µM (active)
same,EC50,[11],> 12 µM (not active)
FC(F)Oc1ccc(/N=C2\SCC3CCCCN23)cc1 (stereo unspecified),AC50,HeLa,342 µM (active)
same,EC50,[8],< 0.1 µM (active)
same,EC50,[9],0.405 µM (active)
same,EC50,[10],0.34 µM (active)
same,EC50,H4,30.2 µM (inconclusive)
same,EC50,[11],1.04 µM (active)
O=C(CSc1nc2scc(-c3ccco3)c2c(=O)n1-c1ccccc1)NCC1CCCO1 (stereo unspecified),IC50,Estrogen receptor beta [12],22.1 µM (active)
same,IC50,Estrogen receptor beta [13],102 µM (not active)
same,IC50,Estrogen receptor,30.1 µM (not active)
COc1cccc(N2CC(=O)C(c3nc(O)c4ccccc4n3)=C2N)c1,IC50,[1],> 111 µM (not active)
same,EC50,[14],0.133 µM (active)
same,IC50,[2],10.2 µM (not active)
